Laboratory results from US9801809B2, “Compositions including a botanical extract and methods of using the same in skin whitening and skin lightening applications” (Access Business Group International LLC, priority 2014, dated 2017).

Test system: Melan-a cells
Experiment: Melanin production in Melan-a cells
Type: cell-based
Details: extract 25 μg and 12.5 μg, treated twice, compared to 100% untreated control, FIG. 3
Protocol: The chrysanthemum extract in an amount of 25 μg and 12.5 μg was solubilized in DMSO and added to Melan-a cells that were freshly seeded at a density of 5×10^4 cells on a 24 well plate. The cytosolic pH of the Melan-a melanocytes in this assay is about 5-7. Each dose of the chrysanthemum extract was added to the cells in triplicate. The final concentration of DMSO in the culture medium was maintained at 0.25%. Forty eight hours following the first set of treatment, the cells were again treated with the chrysanthemum extract and supplemented with fresh medium. Two days later, melanin was extracted and quantified by normalizing with protein content, following the method described by Komatsu et al. (J. Cosmet. Sci; 64, 455-453 (2013); Rana J. et al., Pigment Cell Res., 18:447 (2005)). Inhibitory activity of samples was reported as % reduction in melanin production compared to 100% untreated control (UT). Phenylthiourea (PTU), a well-known tyrosinase inhibitor was used as positive inhibitor control in the assay. FIG. 3 plots the results.

O=c1cc(-c2ccc(O)c(O)c2)oc2cc(O[C@@H]3OC(CO)[C@@H](O)C(O)C3O)cc(O)c12 (stereo partly shown) [luteolin-7 glucoside] was tested, and the “reduction in melanin production” value was “dose-dependent inhibition”.
